# Test system: proinflammatory gene products in psoriasis lesional skin
# Assay: mRNA abundance of inflammatory molecules in skin biopsies by real-time RT-PCR, normalized to hARP
# Format: in vivo, human
# Details: for IL-22/hARP: Gene Expression Median Change (%) / IL-2/hARP: Gene Expression Median Change (%) / p40/hARP: Gene Expression Median Change (%) / CD83/hARP: Gene Expression Median Change (%) / IFNγ/hARP: Gene Expression Median Change (%) / iNOS/hARP: Gene Expression Median Change (%) / DEFB4/hARP: Gene Expression Median Change (%) / IL-17A/hARP: Gene Expression Median Change (%) / CXCL9/hARP: Gene Expression Median Change (%) / MX1/hARP: Gene Expression Median Change (%) / TNFα/hARP: Gene Expression Median Change (%) / IL-8/hARP: Gene Expression Median Change (%) / IL-10/hARP: Gene Expression Median Change (%) / K16/hARP: Gene Expression Median Change (%) / p19/hARP: Gene Expression Median Change (%): subjects also with PASI values
# Procedure: mRNA abundance for a variety of inflammatory molecules was measured by real-time RT-PCR and expression was normalized to the house-keeping gene HARP (human acidic ribosomal protein). Inflammatory markers assessed by mRNA levels included the chemokine CXCL9, beta-defensin (DEFB4), interferon-gamma, IL-10, IL-17a, IL-22, IL-8, keratin 16, MX-1, IL-12/23 p40, IL-23 p19, iNOS and TNF. These are inflammatory molecules produced by activated DC populations, Th1, Th17, Th22 T-cells and response genes to interferon (MX-1. CXCL9) or IL-17 (defensin). Keratin 16 was also measured by mRNA levels to assess the epidermal response by an alternate means.
# The pharmacodynamic effects of (S)—N-(2-(1-(3-ethoxy-4-methoxyphenyl)-2-(methylsulfonyl)ethyl)-1,3-dioxoisoindolin-4-yl)acetamide were studied in skin biopsies from subjects treated with the compound in a phase 2, multi-center, open-label study evaluating the safety, tolerability, and efficacy of the compound in recalcitrant psoriasis vulgaris. Skin biopsies were taken from uninvolved and involved skin at baseline, and from involved skin after treatment with (S)—N-(2-(1-(3-ethoxy-4-methoxyphenyl)-2-(methylsulfonyl)ethyl)-1,3-dioxoisoindolin-4-yl)acetamide 20 mg BID after 4 and 12 weeks.
# The expression of proinflammatory gene products known to be involved in the pathogenesis of psoriasis was measured by real-time polymerase chain reaction (RT-PCR). With regard to gene expression, there were reductions in iNOS and IL-12/IL-23 p40 mRNAs along with reductions in IL-17A and IL-22 mRNAs, indicating inhibition of the Th1, Th17, and Th22 pathways (FIG. 5). […] Normalized IL-17A mRNA levels were reduced by 49% at week 12 and normalized IL-22 mRNA levels were reduced by 100% at week 12. DEFB4, a defensin induced in keratinocytes by IL-17, was reduced by 55% in week 4 biopsies and by 82% in week 12 biopsies. IL-8, which is induced in keratinocytes by IL-17, was reduced by 76% in week 4 biopsies and by 66% in week 12 biopsies.
compound,measurement,setting,value
"CCOc1cc([C@@H](CS(C)(=O)=O)N2C(=O)c3cccc(NC(C)=O)c3C2=O)ccc1OC [(S)—N-(2-(1-(3-ethoxy-4-methoxyphenyl)-2-(methylsulfonyl)ethyl)-1,3-dioxoisoindolin-4-yl)acetamide]",IL-22/hARP: Gene Expression Median Change (%),"Week 4, 20 mg BID, No. 10",−74.4%
same,IL-2/hARP: Gene Expression Median Change (%),"Week 4, 20 mg BID, No. 12",3.33%
same,p40/hARP: Gene Expression Median Change (%),"Week 4, 20 mg BID, No. 13",−100%
same,CD83/hARP: Gene Expression Median Change (%),"Week 4, 20 mg BID, No. 15",−12.4%
same,IFNγ/hARP: Gene Expression Median Change (%),"Week 4, 20 mg BID, No. 15",−38.2%
same,iNOS/hARP: Gene Expression Median Change (%),"Week 4, 20 mg BID, No. 15",−61.0%
same,DEFB4/hARP: Gene Expression Median Change (%),"Week 4, 20 mg BID, No. 16",−55.4%
same,IL-17A/hARP: Gene Expression Median Change (%),"Week 4, 20 mg BID, No. 16",−72.5%
same,CXCL9/hARP: Gene Expression Median Change (%),"Week 4, 20 mg BID, No. 17",−30.7%
same,MX1/hARP: Gene Expression Median Change (%),"Week 4, 20 mg BID, No. 17",−51.1%
same,TNFα/hARP: Gene Expression Median Change (%),"Week 4, 20 mg BID, No. 17",−13.0%
same,IL-8/hARP: Gene Expression Median Change (%),"Week 4, 20 mg BID, No. 18",−76.4%
same,IL-10/hARP: Gene Expression Median Change (%),"Week 4, 20 mg BID, No. 18",−49.1%
same,K16/hARP: Gene Expression Median Change (%),"Week 4, 20 mg BID, No. 18",−62.0%
same,p19/hARP: Gene Expression Median Change (%),"Week 4, 20 mg BID, No. 18",−53.4%
same,CXCL9 (MIG) mRNA: Median % change from baseline (normalized to hARP),"Week 4, 20 mg b.i.d.",−30.7%
same,DEFB4 mRNA: Median % change from baseline (normalized to hARP),"Week 4, 20 mg b.i.d.",−55.4%
same,IFN-g mRNA: Median % change from baseline (normalized to hARP),"Week 4, 20 mg b.i.d.",−38.2%
same,IL-8 mRNA: Median % change from baseline (normalized to hARP),"Week 4, 20 mg b.i.d.",−76.4%
same,IL-10 mRNA: Median % change from baseline (normalized to hARP),"Week 4, 20 mg b.i.d.",−49.1%
same,IL-12/IL-23 p40 mRNA: Median % change from baseline (normalized to hARP),"Week 4, 20 mg b.i.d.",−100%
same,IL-17A mRNA: Median % change from baseline (normalized to hARP),"Week 4, 20 mg b.i.d.",−72.5%
same,IL-22 mRNA: Median % change from baseline (normalized to hARP),"Week 4, 20 mg b.i.d.",−74.4%
same,IL-23p19 mRNA: Median % change from baseline (normalized to hARP),"Week 4, 20 mg b.i.d.",−53.4%
same,K-16 mRNA: Median % change from baseline (normalized to hARP),"Week 4, 20 mg b.i.d.",−62.0%
same,MX-1 mRNA: Median % change from baseline (normalized to hARP),"Week 4, 20 mg b.i.d.",−51.1%
same,iNOS mRNA: Median % change from baseline (normalized to hARP),"Week 4, 20 mg b.i.d.",−61.0%
same,median reduction in normalized MX-1 mRNA,"Week 4, 20 mg b.i.d.",51%
same,reduction of normalized iNOS mRNA expression,"Week 4, 20 mg b.i.d.",61%
same,IL-22/hARP: Gene Expression Median Change (%),"Week 12, 20 mg BID, No. 6",−100%
same,p40/hARP: Gene Expression Median Change (%),"Week 12, 20 mg BID, No. 7",−51.5%
same,DEFB4/hARP: Gene Expression Median Change (%),"Week 12, 20 mg BID, No. 10",−82.0%
same,IL-2/hARP: Gene Expression Median Change (%),"Week 12, 20 mg BID, No. 10",−25.0%
same,IL-17A/hARP: Gene Expression Median Change (%),"Week 12, 20 mg BID, No. 10",−46.7%
same,CD83/hARP: Gene Expression Median Change (%),"Week 12, 20 mg BID, No. 11",27.39%
same,CXCL9/hARP: Gene Expression Median Change (%),"Week 12, 20 mg BID, No. 11",−15.8%
same,MX1/hARP: Gene Expression Median Change (%),"Week 12, 20 mg BID, No. 11",−51.5%
same,iNOS/hARP: Gene Expression Median Change (%),"Week 12, 20 mg BID, No. 11",−100%
same,IFNγ/hARP: Gene Expression Median Change (%),"Week 12, 20 mg BID, No. 12",−15.3%
same,TNFα/hARP: Gene Expression Median Change (%),"Week 12, 20 mg BID, No. 13",−41.3%
same,IL-8/hARP: Gene Expression Median Change (%),"Week 12, 20 mg BID, No. 14",−79.2%
same,IL-10/hARP: Gene Expression Median Change (%),"Week 12, 20 mg BID, No. 14",−15.3%
same,K16/hARP: Gene Expression Median Change (%),"Week 12, 20 mg BID, No. 14",−82.5%
same,p19/hARP: Gene Expression Median Change (%),"Week 12, 20 mg BID, No. 14",−67.9%
same,CXCL9 (MIG) mRNA: Median % change from baseline (normalized to hARP),"Week 12, 20 mg b.i.d.",−36.4%
same,DEFB4 mRNA: Median % change from baseline (normalized to hARP),"Week 12, 20 mg b.i.d.",−82.3%
same,IFN-g mRNA: Median % change from baseline (normalized to hARP),"Week 12, 20 mg b.i.d.",−37.6%
same,IL-8 mRNA: Median % change from baseline (normalized to hARP),"Week 12, 20 mg b.i.d.",−66.5%
same,IL-10 mRNA: Median % change from baseline (normalized to hARP),"Week 12, 20 mg b.i.d.",−26.5%
same,IL-12/IL-23 p40 mRNA: Median % change from baseline (normalized to hARP),"Week 12, 20 mg b.i.d.",−86.7%
same,IL-17A mRNA: Median % change from baseline (normalized to hARP),"Week 12, 20 mg b.i.d.",−49.4%
same,IL-22 mRNA: Median % change from baseline (normalized to hARP),"Week 12, 20 mg b.i.d.",−100%
same,IL-23p19 mRNA: Median % change from baseline (normalized to hARP),"Week 12, 20 mg b.i.d.",−68.3%
same,K-16 mRNA: Median % change from baseline (normalized to hARP),"Week 12, 20 mg b.i.d.",−78.6%
same,MX-1 mRNA: Median % change from baseline (normalized to hARP),"Week 12, 20 mg b.i.d.",−52.6%
same,iNOS mRNA: Median % change from baseline (normalized to hARP),"Week 12, 20 mg b.i.d.",−100%
same,median reduction in K16 mRNA,"Week 12, 20 mg b.i.d.",78%
same,reduction in normalized MX-1 mRNA,"Week 12, 20 mg b.i.d.",52%
same,reduction of normalized IL-17A mRNA levels,"Week 12, 20 mg b.i.d.",49%
same,reduction of normalized IL-22 mRNA levels,"Week 12, 20 mg b.i.d.",100%
same,reduction of normalized iNOS mRNA expression,"Week 12, 20 mg b.i.d.",100%
same,reduction in IFN-γ gene expression in the skin,"week 4, the three subjects who attained a PASI-75 or better at week 12",100%
same,IL-12/23 p40 mRNA levels,"week 4 and week 12 biopsies, 20 mg b.i.d.",significant reductions
same,reduction of normalized expression of IL-8,"week 4 biopsies, 20 mg b.i.d.",76%
same,"inhibition of gene expression, responders vs non-responders","week 12, 20 mg BID",greater among responders
same,reduction of normalized expression of IL-8,"week 12 biopsies, 20 mg b.i.d.",66%

# Source: patent US20110318741A1, “BIOMARKERS FOR THE TREATMENT OF PSORIASIS” (priority 2010, published 2011)
